One data set concerns rat. As to the kind of experiment: 14-day sub-chronic toxicity in rat with nasal olanzapine delivery. Format: in vivo. To be noted: nasal delivery (data not shown).
The conditions of data set [1]: oral olanzapine tablets or disintegrating tablets, previously reported; cited from earlier work.
Data set [2] in a line: Phase 1 clinical trial, plasma olanzapine pharmacokinetics. To be noted: human, in vivo. The method, then: Randomization for Periods 1 and 2 was performed for each subject on Day 1.
In Period 1, subjects were assigned to 1 of 3 cohorts (n=12 per cohort). […] Dose administration occurred at Visit 2 on Day 1 (relative to each cohort). Each cohort was scheduled to allow time for Period 2 safety assessments to occur prior to dose escalation in the next cohort period 2 dosing. Subjects remained confined to the study site for 72 hours after dosing. Subjects returned to the study site on Days 5 and 6 (Visits 3 and 4) for follow-up assessments.
In Period 2, subjects returned to the study site after a washout period of at least 14 days. Subjects from each Period 1 cohort received a single dose of INP105 (5, 10 or 15 mg) or placebo in a 9:3 ratio, as outlined in Table 11. Dose administration occurred on Day 15. (Dosing was permitted to occur later than the calendar Day 15 as required for scheduling (up to 2 days) but not before Day 15.) Ascending-dose levels of INP105 (5, 10 or 15 mg) were administered to ascending cohort numbers as follows:
The following pharmacokinetic parameters were determined: Cmax, Tmax, Tlast, AUClast, and t1/2 where possible.

Where only a bound is given, the exact number is not on record here.

By Tmax is commonly meant the time from dosing to the highest level. Usually Cmax stands for the maximum level reached in the sampled fluid or tissue. For the compound `Cc1cc2c(s1)Nc1ccccc1N=C2N1CCN(C)CC1` [olanzapine], the “macroscopic or microscopic findings” value in the data set on rat is recorded as “No macroscopic or microscopic findings”. Moreover, the “time to peak plasma concentration (Tmax)” value in data set [1] is 300 to 480 min. In addition, the time of peak concentration (Tmax) in data set [2] (im, 5 mg) was 19.8 to 21.6 min; in data set [2] (inhaled or intranasal), 9.6 to 10.2 min; in data set [2] (po, 10 mg), 120 min. In data set [2] (inhaled or intranasal, 15 mg), this compound showed a Cmax not below 30 ng/mL.
